Results taken from ChEMBL document CHEMBL1130210, “Steroidal glycoside cholesterol absorption inhibitors” (1997).

Tested on: Cricetinae gen. sp.
Experiment: Ability to inhibit the intestinal absorption of [3H]cholesterol in cholesterol-fed hamsters
Type: functional

SMILES	ED50 [mg/kg]
Cc1ccccc1NC(=O)OC[C@@H]1O[C@@H](O[C@H]2[C@H](O)[C@H](O)[C@H](O[C@H]3CC[C@]4(C)C5C(=O)C[C@@]6(C)C(CC7O[C@]8(CC[C@@H](C)CO8)[C@@H](C)C76)C5CC[C@H]4C3)O[C@H]2CO)[C@@H](O)[C@@H](O)[C@@H]1O (stereo partly drawn)	0.5
C[C@@H]1CC[C@@]2(OC1)OC1CC3C4CC[C@H]5C[C@@H](O[C@@H]6O[C@@H](COC(=O)Nc7ccc(Cl)cc7)[C@@H](O[C@@H]7O[C@@H](COC(=O)Nc8ccc(Cl)cc8)[C@@H](O)[C@H](O)[C@@H]7O)[C@H](O)[C@@H]6O)CC[C@]5(C)C4C(=O)C[C@]3(C)C1[C@@H]2C (stereo partly drawn)	5
CC1CC[C@@]2(OC1)OC1C[C@H]3[C@@H]4CC[C@H]5C[C@@H](OC6OC(CF)C(OC7OC(CF)C(O)C(O)C7O)C(O)C6O)CC[C@]5(C)[C@H]4C(=O)C[C@]3(C)C1[C@@H]2C (stereo partly drawn)	0.7
C[C@@H]1CC[C@@]2(OC1)OC1CC3C4CC[C@H]5C[C@@H](O[C@@H]6O[C@@H](CO)[C@@H](O[C@@H]7O[C@@H](COC(=O)Nc8c(Cl)cccc8Cl)[C@@H](O)[C@H](O)[C@@H]7O)[C@H](O)[C@@H]6O)CC[C@]5(C)C4C(=O)C[C@]3(C)C1[C@@H]2C (stereo partly drawn)	0.2
C[C@@H]1CC[C@@]2(OC1)OC1CC3C4CC[C@H]5C[C@@H](O[C@@H]6O[C@@H](CO)[C@@H](O[C@@H]7O[C@@H](COC(=O)Nc8ccccc8)[C@@H](OC(=O)Nc8ccccc8)[C@H](O)[C@@H]7O)[C@H](O)[C@@H]6O)CC[C@]5(C)C4C(=O)C[C@]3(C)C1[C@@H]2C (stereo partly drawn)	0.1
C[C@@H]1CC[C@@]2(OC1)O[C@H]1C[C@H]3[C@@H]4CC[C@H]5C[C@@H](O[C@@H]6O[C@H](CO)[C@H](O)[C@H](O)[C@H]6O)CC[C@]5(C)[C@H]4C(=O)C[C@]3(C)[C@H]1[C@@H]2C	12
C[C@@H]1CC[C@@]2(OC1)OC1CC3C4CC[C@H]5C[C@@H](O[C@@H]6O[C@@H](COC(=O)Nc7ccccc7F)[C@@H](O[C@@H]7O[C@@H](COC(=O)Nc8ccccc8F)[C@@H](O)[C@H](O)[C@@H]7O)[C@H](O)[C@@H]6O)CC[C@]5(C)C4C(=O)C[C@]3(C)C1[C@@H]2C (stereo partly drawn)	0.8
CC1CC[C@@]2(OC1)OC1C[C@H]3[C@@H]4CC[C@H]5C[C@@H](OC6OC(CI)C(OC7OC(CI)C(O)C(O)C7O)C(O)C6O)CC[C@]5(C)[C@H]4C(=O)C[C@]3(C)C1[C@@H]2C (stereo partly drawn)	1.5
C[C@@H]1CC[C@@]2(OC1)OC1CC3C4CC[C@H]5C[C@@H](O[C@@H]6O[C@@H](CO)[C@@H](O[C@@H]7O[C@@H](COC(=O)Nc8ccc(F)cc8)[C@@H](OC(=O)Nc8ccc(F)cc8)[C@H](O)[C@@H]7O)[C@H](O)[C@@H]6O)CC[C@]5(C)C4C(=O)C[C@]3(C)C1[C@@H]2C (stereo partly drawn)	0.2
C[C@]12CC[C@H](O[C@@H]3O[C@@H](CO)[C@@H](O[C@@H]4O[C@@H](CO)[C@@H](O)[C@H](O)[C@@H]4O)[C@H](O)[C@@H]3O)C[C@@H]1CC[C@@H]1[C@@H]2CC[C@]2(C)C(=O)CC[C@@H]12	25
CCOCOC[C@@H]1O[C@@H](O[C@H]2[C@H](O)[C@H](O)[C@H](O[C@H]3CC[C@]4(C)C5C(=O)C[C@@]6(C)C(CC7O[C@]8(CC[C@@H](C)CO8)[C@@H](C)C76)C5CC[C@H]4C3)O[C@H]2COCOCC)[C@@H](O)[C@@H](O)[C@@H]1O (stereo partly drawn)	3
C[C@@H]1CC[C@@]2(OC1)OC1CC3C4CC[C@H]5C[C@@H](O[C@@H]6O[C@@H](CO)[C@@H](O[C@@H]7O[C@@H](COC(=O)Nc8ccccc8F)[C@@H](OC(=O)Nc8ccccc8F)[C@H](O)[C@@H]7O)[C@H](O)[C@@H]6O)CC[C@]5(C)C4CC[C@]3(C)C1[C@@H]2C (stereo partly drawn)	1
CC1CC[C@@]2(OC1)OC1C[C@H]3[C@@H]4CC[C@H]5C[C@@H](O[C@@H]6O[C@@H](CO)C(O[C@@H]7O[C@@H](COC(=O)Nc8ccccc8Cl)[C@@H](OC(=O)Nc8ccccc8Cl)[C@H](O)[C@@H]7O)[C@@H](O)[C@@H]6O)CC[C@]5(C)[C@H]4C(=O)C[C@]3(C)C1[C@@H]2C (stereo partly drawn)	1
CCOC(=O)CNC(=O)OC[C@@H]1O[C@@H](O[C@H]2[C@H](O)[C@H](O)[C@H](O[C@H]3CC[C@]4(C)C5C(=O)C[C@@]6(C)C(CC7O[C@]8(CC[C@@H](C)CO8)[C@@H](C)C76)C5CC[C@H]4C3)O[C@H]2CO)[C@@H](O)[C@@H](O)[C@@H]1OC(=O)NCC(=O)OCC (stereo partly drawn)	0.6
CC1CC[C@@]2(OC1)OC1C[C@H]3[C@@H]4CC[C@H]5C[C@@H](OC6OC(C)C(OC7OC(C)C(O)C(O)C7O)C(O)C6O)CC[C@]5(C)[C@H]4C(=O)C[C@]3(C)C1[C@@H]2C (stereo partly drawn)	6.5
C[C@@H]1CC[C@@]2(OC1)OC1CC3C4CC[C@H]5C[C@@H](O[C@@H]6O[C@@H](CO)[C@@H](O[C@@H]7O[C@@H](COC(=O)N8CCCC8)[C@@H](O)[C@H](O)[C@@H]7O)[C@H](O)[C@@H]6O)CC[C@]5(C)C4C(=O)C[C@]3(C)C1[C@@H]2C (stereo partly drawn)	1.5
C[C@@H]1CC[C@@]2(OC1)OC1CC3C4CC[C@H]5C[C@@H](O[C@@H]6O[C@@H](CO)[C@@H](O[C@@H]7O[C@@H](COC(=O)NCCc8ccccc8)[C@@H](O)[C@H](O)[C@@H]7O)[C@H](O)[C@@H]6O)CC[C@]5(C)C4C(=O)C[C@]3(C)C1[C@@H]2C (stereo partly drawn)	5

SMILES	ED50 [mg/kg]
C[C@@H]1CC[C@@]2(OC1)OC1CC3C4CC[C@H]5C[C@@H](O[C@@H]6O[C@@H](CO)[C@@H](O[C@@H]7O[C@@H](COC(=O)Nc8ccccc8F)[C@@H](OC(=O)Nc8ccccc8F)[C@H](O)[C@@H]7O)[C@H](O)[C@@H]6O)CC[C@]5(C)C4CC(=O)[C@]3(C)C1[C@@H]2C (stereo partly drawn)	0.07
C[C@@H]1CC[C@@]2(OC1)OC1CC3C4CC[C@H]5C[C@@H](O[C@@H]6O[C@@H](CO)[C@@H](O[C@@H]7O[C@@H](COC(=O)Nc8ccccc8F)[C@@H](OC(=O)Nc8ccccc8F)[C@H](O)[C@@H]7O)[C@H](O)[C@@H]6O)CC[C@]5(C)C4C(=O)C[C@]3(C)C1[C@@H]2C (stereo partly drawn)	0.025
CC1CC[C@@]2(OC1)OC1C[C@H]3[C@@H]4CC[C@H]5C[C@@H](OC6OC(CCl)C(OC7OC(CCl)C(O)C(O)C7O)C(O)C6O)CC[C@]5(C)[C@H]4C(=O)C[C@]3(C)C1[C@@H]2C (stereo partly drawn)	0.5
C[C@@H]1CC[C@@]2(OC1)OC1CC3C4CC[C@H]5C[C@@H](O[C@@H]6O[C@@H](CO)[C@@H](O[C@@H]7O[C@@H](COC(=O)NCc8ccccc8)[C@@H](O)[C@H](O)[C@@H]7O)[C@H](O)[C@@H]6O)CC[C@]5(C)C4C(=O)C[C@]3(C)C1[C@@H]2C (stereo partly drawn)	5
C[C@@H]1CC[C@@]2(OC1)O[C@H]1C[C@H]3[C@@H]4CC=C5C[C@@H](O[C@@H]6O[C@@H](CO)[C@@H](O[C@@H]7O[C@@H](CO)[C@@H](O)[C@H](O)[C@@H]7O)[C@H](O)[C@@H]6O)CC[C@]5(C)[C@H]4CC[C@]3(C)[C@H]1[C@@H]2C	100
C[C@@H]1CC[C@@]2(OC1)OC1CC3C4CC[C@H]5C[C@@H](O[C@@H]6O[C@@H](COC(=O)Nc7ccccc7F)[C@@H](O[C@@H]7O[C@@H](CO)[C@@H](O)[C@H](O)[C@@H]7O)[C@H](O)[C@@H]6O)CC[C@]5(C)C4C(=O)C[C@]3(C)C1[C@@H]2C (stereo partly drawn)	7
C[C@@H]1CC[C@@]2(OC1)OC1CC3C4CC[C@H]5C[C@@H](O[C@@H]6O[C@@H](COC(=O)Nc7ccccc7)[C@@H](O[C@@H]7O[C@@H](COC(=O)Nc8ccccc8)[C@@H](O)[C@H](O)[C@@H]7O)[C@H](O)[C@@H]6O)CC[C@]5(C)C4C(=O)C[C@]3(C)C1[C@@H]2C (stereo partly drawn)	5
C[C@H]1CC[C@@]2(OC1)O[C@H]1C[C@H]3[C@@H]4CC[C@@H]5C[C@@H](O[C@@H]6O[C@@H](CO)[C@@H](O[C@@H]7O[C@@H](CO)[C@@H](O)[C@H](O)[C@@H]7O)[C@H](O)[C@@H]6O)CC[C@]5(C)[C@H]4CC[C@]3(C)C1[C@@H]2C (stereo partly drawn)	75
C[C@@H]1CC[C@@]2(OC1)O[C@H]1C[C@H]3[C@@H]4CC[C@H]5C[C@@H](O[C@@H]6O[C@H](CO)[C@@H](O)[C@H](O)[C@H]6O)CC[C@]5(C)[C@H]4C(=O)C[C@]3(C)[C@H]1[C@@H]2C	16
C[C@@H]1CC[C@@]2(OC1)O[C@H]1C[C@H]3[C@@H]4CC[C@H]5C[C@@H](O[C@@H]6O[C@@H](CO)[C@@H](O[C@@H]7O[C@@H](CO)[C@@H](O)[C@H](O)[C@@H]7O)[C@H](O)[C@@H]6O)CC[C@]5(C)[C@H]4CC(=O)[C@]3(C)[C@H]1[C@@H]2C [CELLOBIOSYL HECOGENIN]	10
C[C@@H]1CC[C@@]2(OC1)OC1CC3C4CC[C@H]5C[C@@H](O[C@@H]6O[C@@H](CO)[C@@H](O[C@@H]7O[C@@H](COC(=O)NCc8ccco8)[C@@H](OC(=O)NCc8ccco8)[C@H](O)[C@@H]7O)[C@H](O)[C@@H]6O)CC[C@]5(C)C4C(=O)C[C@]3(C)C1[C@@H]2C (stereo partly drawn)	0.3
CC(C)CCC[C@@H](C)C1CC[C@H]2[C@@H]3CC[C@H]4C[C@@H](O[C@@H]5O[C@@H](CO)[C@@H](O[C@@H]6O[C@@H](CO)[C@@H](O)[C@H](O)[C@@H]6O)[C@H](O)[C@@H]5O)CC[C@]4(C)[C@H]3CC[C@]12C (stereo partly drawn)	150
C[C@@H]1CC[C@@]2(OC1)OC1CC3C4CC[C@H]5C[C@@H](O[C@@H]6O[C@@H](CO)[C@@H](O[C@@H]7O[C@@H](COC(=O)Nc8cccc(F)c8)[C@@H](OC(=O)Nc8cccc(F)c8)[C@H](O)[C@@H]7O)[C@H](O)[C@@H]6O)CC[C@]5(C)C4C(=O)C[C@]3(C)C1[C@@H]2C (stereo partly drawn)	0.1
C[C@@H]1CC[C@@]2(OC1)OC1CC3C4CC[C@H]5C[C@@H](O[C@@H]6O[C@@H](CO)[C@@H](O[C@@H]7O[C@@H](COC(=O)Nc8ccc(F)cc8F)[C@@H](OC(=O)Nc8ccc(F)cc8F)[C@H](O)[C@@H]7O)[C@H](O)[C@@H]6O)CC[C@]5(C)C4C(=O)C[C@]3(C)C1[C@@H]2C (stereo partly drawn)	0.04
CC1CC[C@@]2(OC1)OC1C[C@H]3[C@@H]4CC[C@H]5C[C@@H](O[C@@H]6O[C@@H](CO)[C@@H](O[C@@H]7O[C@@H](COC(=O)N8CCOCC8)[C@@H](OC(=O)N8CCOCC8)[C@H](O)C7O)[C@H](O)[C@@H]6O)CC[C@]5(C)[C@H]4C(=O)C[C@]3(C)C1[C@@H]2C (stereo partly drawn)	4
C[C@@H]1CC[C@@]2(OC1)OC1CC3C4CC[C@H]5C[C@@H](O[C@@H]6O[C@@H](CO)[C@@H](O[C@@H]7O[C@@H](COC(=O)NCc8ccccc8)[C@@H](OC(=O)NCc8ccccc8)[C@H](O)[C@@H]7O)[C@H](O)[C@@H]6O)CC[C@]5(C)C4C(=O)C[C@]3(C)C1[C@@H]2C (stereo partly drawn)	0.3
